# Results: patent US8835171B2, “Materials and methods related to sodium/potassium adenosine triphosphase and cholesterol” (The University of Toledo, priority 2010, dated 2014)
# Experiments:
# [1] = target: T1, purified pig kidney Na/K-ATPase (PKE) (Sus scrofa, UniProt P05024); test: NBD-cholesterol binding assay with purified pig kidney enzyme (PKE)
# T1 construct: Purified Na/K-ATPase membrane samples (PKE) were prepared from pig kidney medulla; from tissue; host or cells: pig kidney outer medulla
# Text: As the purified membrane fragments contained large amount of cholesterol, which may already saturated binding sites on the Na/K-ATPase, most of the cholesterol content was extracted by Mβ-CD (FIG. 5B). To study the binding between the Na/K-ATPase and cholesterol, a cholesterol analogue, 25-[N-[(7-nitro-2-1,3-benzoxadiazol-4-yl)methyl]amino]-27-norcholesterol (NBD cholesterol), was used for the binding assay. NBD-cholesterol was used for the study of protein-cholesterol interaction before. Unlike cholesterol, NBD-cholesterol is able to emit fluorescence signals that peak at ˜530 nm when excited at 473 nm because of the replacement of the methyl group at C25 position with an NBD group (FIG. 5C). In the aqueous solution, its fluorescence is largely quenched. However, when it binds to a protein and is exposed to a hydrophobic environment, the fluorescence signals will increase. Moreover, it has much higher critical micelle concentration (˜650 nM) than that of the cholesterol (30 nM) so that higher concentrations of the NBD-cholesterol can be used during the binding assay. […] The Kd value is 100 nM-200 nM.
# To further confirm that the results represented lipid-protein interaction instead of lipid-lipid interaction, the inventors measured fluorescence resonance energy transfer (FRET) signals. […]
# Na/K-ATPase α1 [2] = test: Western blot of Na/K-ATPase α1 level in LLC-PK1 cells; assay type: cell-based, pig
# Method: LLC-PK1 cells were grown in 6 cm culture dish to 100% confluence and serum starved for 24 hours. Cells were then treated by 10 mM Mβ-CD for 1 hour. […] Cell lysates were subject to protein assay and Western blot analysis. Protein concentrations of cell lysates or tissue homogenates were measured by Protein Assay Kit from Bio-Rad (Hercules, Calif.). Equal amounts of protein were loaded onto the gel and separated on 10% SDS-PAGE, transferred to an Optitran membrane, and probed with corresponding antibodies. Protein signals were detected with an ECL kit. The density of the Western bands was quantified by the free software Image J.
# LLC-PK1 cells [3] = test: Cholesterol assay of LLC-PK1 cell lysates; assay type: cell-based, pig; conditions: U18666A-treated cells
# Method: LLC-PK1 cells were grown in 6 cm culture dish to 100% confluence and serum starved for 24 hours. […] […] Cell lysates were subject to protein assay and Western blot analysis. Cholesterol assay and filipin staining were performed as described in Chen et al., Regulation of intracellular cholesterol distribution by Na/K-ATPase. Journal Biological Chemistry, Volume 284, pages 14881-14890 (2009).
# [4] = tested on: insulin receptor β subunit; test: Western blot of insulin receptor in LLC-PK1 cells; assay type: cell-based, pig
# Method: (§1) Protein concentrations of cell lysates or tissue homogenates were measured by Protein Assay Kit from Bio-Rad (Hercules, Calif.). Equal amounts of protein were loaded onto the gel and separated on 10% SDS-PAGE, transferred to an Optitran membrane, and probed with corresponding antibodies. Protein signals were detected with an ECL kit. The density of the Western bands was quantified by the free software Image J.
# caveolin-1 = test: Western blot of caveolin-1 in LLC-PK1 cells; assay type: cell-based, pig; conditions: U18666A 48 h
# Method: as §1
# cell surface Na/K-ATPase = test: 3H-ouabain binding assay of cell surface Na/K-ATPase; assay type: cell-based, pig; conditions: LLC-PK1 cells, U18666A
# Method: [3H]Ouabain Binding was conducted as described in Tian et al., Changes in sodium pump expression dictate the effects of ouabain on cell growth, Journal of Biological Chemistry, 14921-1429 (2009).
# Na/K-ATPase α1 mRNA = test: Quantitative RT-PCR of α1 mRNA; assay type: cell-based, pig; conditions: LLC-PK1 cells, 10 μg/ml U18666A 24 h
# Method: The quantitative RT-PCR on mRNA levels of Na/K-ATPase α1 and GAPDH were performed as described in Tian et al., Changes in sodium pump expression dictate the effects of ouabain on cell growth, Journal of Biological Chemistry, 14921-1429 (2009).
# Na/K-ATPase α1 [5] = test: Immunostaining / confocal imaging of Na/K-ATPase α1 distribution in LLC-PK1 cells; assay type: cell-based, pig
# LLC-PK1 cells [6] = test: Filipin staining of cholesterol distribution in LLC-PK1 cells; assay type: cell-based, pig; conditions: U18666A 24 h
# Method: Cholesterol assay and filipin staining were performed as described in Chen et al., Regulation of intracellular cholesterol distribution by Na/K-ATPase. Journal Biological Chemistry, Volume 284, pages 14881-14890 (2009).
# wild-type rat α1 = test: α1 and filipin staining in wild-type rat α1-rescued cells (AAC-19); assay type: cell-based; conditions: AAC-19 cells, different doses of U18666A 24 h
# Method: Thus, it was of interest to explore whether the CRAC plays a role in cholesterol depletion-induced α1 endocytosis. Firstly, the inventors treated wild-type rat α1 rescued-cells, AAC-19, with U18666A and stained both α1 and cholesterol. […] Staining of the Na/K-ATPase α1 was performed as previously described. Briefly, cells were serum-starved for 24 hours and treated on coverslips. The cells were then fixed with ice-cold methanol for 30 min and blocked with Signal Enhancer from Invitrogen. Next, cells were incubated with a monoclonal anti-Na/K-ATPase α1 antibody at 4° C. overnight. After three washes with PBS, a secondary Alex 488-conjugated anti-mouse antibody was added and incubated at room temperature for 3 hours. The coverslip was washed, mounted and imaged with a Leica confocal microscope.
# Y55S mutant rat α1 = test: α1 and filipin staining in Y55S mutant rat α1-rescued cells (PY-17-Y55S); assay type: cell-based; conditions: PY-17-Y55S cells, different doses of U18666A 24 h
# Text: Next, the inventors mutated the essential Tyr55 in the rat α1 CRAC (corresponds to the Tyr53 in pig α1) to Ser55 by a site-directed mutagenesis method and generated the stable mutant rat α1-rescued cell line (PY-17-Y55S). Once the cell line was established, the inventors did the same experiment as on AAC-19 cells. […] To confirm the findings, the inventors had the CRAC synthesized with a positively charged leader peptide, HIV-TAT, tagged to the N-terminus of CRAC so that the TAT-CRAC peptide was cell permeable. Theoretically, loading of the TAT-CRAC peptide into the cells may interrupt the binding between endogenous α1 and cholesterol by competitive inhibition. […] Taken together, the cholesterol-regulated Na/K-ATPase α1 membrane trafficking is dependent on the cholesterol-α1 interaction.
# The rat α1 CRAC mutant (Tyr55 to Ser55) was created by PCR-based site-directed mutagenesis on the pRc/CMV-a1AACm1 plasmid as generated previously. The Y55S mutant rat α1 knock-in cell line was then established using the same protocol described before. The pEYFP-α1 plasmid was generated as described previously. RFP-rab7 plasmid was requested from www.addgene.org. The preparation of plasmid constructs expressing GST fusion proteins were made from pGEX-4T-1 as previously described. GST-NT (Ala1-Ser160) and GST-NT-Y55S expression vectors were constructed based on sequence of pig kidney Na/K-ATPase α1 subunit. […]
# LLC-PK1 cells [7] = conditions: 10 mM Mβ-CD 30-60 minutes at 37°, previous work from the inventors' lab; cited from earlier work
compound,measurement,setting,value
"CC(CCC[C@@H](C)[C@@H]1CC[C@H]2[C@@H]3CC=C4C[C@@H](O)CC[C@]4(C)[C@H]3CC[C@@]21C)N(C)c1ccc([N+](=O)[O-])c2nonc12 (stereo partly shown) [NBD-cholesterol, 25-[N-[(7-nitro-2-1,3-benzoxadiazol-4-yl)methyl]amino]-27-norcholesterol]",FRET signals at 530 nm on incubation with PKE,[1]; Trp excited at 295 nm,dose-dependent saturation curve
CCN(CC)CCO[C@H]1CC[C@@]2(C)C(=CC[C@@H]3[C@@H]2CC[C@]2(C)C(=O)CC[C@@H]32)C1 [U18666A],downregulation of α1 expression,Na/K-ATPase α1 [2]; U18666A 24 h and 48 h,both dose and time-dependent
same,total cellular cholesterol,LLC-PK1 cells [3],no significant difference
same,insulin receptor content,[4]; LLC-PK1 cells after U18666A treatment,remained undisturbed
same,caveolin-1 protein level,caveolin-1,downregulated
same,cell surface α1 by 3H-ouabain binding,cell surface Na/K-ATPase,downregulation of cell surface α1
same,α1 mRNA level,Na/K-ATPase α1 mRNA,no difference compared to control
same,"intracellular α1 accumulation, colocalization with RFP-Rab7","Na/K-ATPase α1 [5]; LLC-PK1 cells transfected with RFP-rab7, 5 μg/ml U18666A 24 h","massive intracellular α1 accumulation, most of which clearly colocalized with the Rab7 signals"
same,colocalization of internalized YFP-α1 with free cholesterol,"Na/K-ATPase α1 [5]; LLC-PK1 cells transfected with YFP-α1, 5 μg/ml U18666A 24 h",most of the internalized α1 colocalized with free cholesterol
same,"α1 signals, cellular distribution","Na/K-ATPase α1 [5]; LLC-PK1 cells, U18666A 24 h",reduced in the plasma membrane but increased in the intracellular compartments
same,distribution of free cholesterol,LLC-PK1 cells [6],redistribution of free cholesterol from the plasma membrane to intracellular compartments
same,endocytosis of α1,wild-type rat α1,endocytosis of α1 in a dose-dependent manner
same,endocytosis of α1,Y55S mutant rat α1,no obvious endocytosis
CC(C)CCC[C@@H](C)[C@H]1CC[C@H]2[C@@H]3CC=C4C[C@@H](O)CC[C@]4(C)[C@H]3CC[C@]12C [cholesterol],competition of binding between NBD-cholesterol and purified PKE,"[1]; 100 nM PKE, 30 nM NBD-cholesterol, FRET",competed the binding
C[C@@H]1C[C@@H]([C@H](O)CC2CC(=O)NC(=O)C2)C(=O)[C@@H](C)C1 [cycloheximide],effect on U18666A-induced α1 redistribution to the intracellular compartments,Na/K-ATPase α1 [5]; cycloheximide 10 μg/ml 1 h before U18666A 24 h,did not prevent
methyl β-cyclodextrin [Mβ-CD],decrease in α1 level,"Na/K-ATPase α1 [2]; 10 mM Mβ-CD 1 h, 0 h recovery",~40%
same,expression of insulin receptor,[4]; during cholesterol depletion by Mβ-CD and repletion,unchanged
same,α1 immunostaining signals,Na/K-ATPase α1 [5]; Mβ-CD treated LLC-PK1 cells,lower α1 signals from the plasma membrane
same,plasma membrane cholesterol pool,LLC-PK1 cells [7],significantly lowered
